# Test results: US20220380347A1, “INHIBITORS OF CYSTEINE PROTEASES AND METHODS OF USE THEREOF” (Pardes Biosciences, Inc., priority 2020, published 2022)
# Like-named read-outs stand apart in the source and are kept apart here.
# Assays:
# [1] = tested on: HCov OC43; assay: HCoV OC43 cytopathic effect (CPE) assay, CellTiter Glo; type: cell-based, human coronavirus (HCov) OC43
# Protocol: Example 238: Evaluation of antiviral activity of compounds against human coronavirus (HCov) 229E and OC43 in the cytopathic effect (CPE) assays
# Compounds were assayed using standard methods against multiple coronaviral strains, including HCoV 229E and OC43 strains. The antiviral activity of compounds was calculated based on the protection of the virus-induced CPE at each concentration normalized by the virus control.
# Reference compound used was remdesivir; detection reagent: CellTiter Glo.) The CPE were measured by CellTiter Glo following the manufacturer's manual. The antiviral activity of compounds was calculated based on the protection of the virus-induced CPE at each concentration normalized by the virus control.
# Cell viability was measured with CellTiter Glo.
# [2] = target: COVID-19 (nCoV-2019, SARS-CoV2) Mpro (Severe acute respiratory syndrome coronavirus 2, UniProt P0DTD1); assay: COVID-19 (nCoV-2019, SARS-CoV2) Mpro enzymatic assay; type: biochemical; details: 25 nM Mpro, 25 μM substrate; read-out: COVID-19 Mpro IC50
# [3] = target: 229E Mpro (Human coronavirus 229E, UniProt P0C6X1); assay: 229E Mpro enzymatic assay (standard methods, SARS-CoV2 Mpro assay given as exemplary); type: biochemical, human coronavirus (HCov) 229E
# Sequence of 229E Mpro (P0C6X1 2966-3267): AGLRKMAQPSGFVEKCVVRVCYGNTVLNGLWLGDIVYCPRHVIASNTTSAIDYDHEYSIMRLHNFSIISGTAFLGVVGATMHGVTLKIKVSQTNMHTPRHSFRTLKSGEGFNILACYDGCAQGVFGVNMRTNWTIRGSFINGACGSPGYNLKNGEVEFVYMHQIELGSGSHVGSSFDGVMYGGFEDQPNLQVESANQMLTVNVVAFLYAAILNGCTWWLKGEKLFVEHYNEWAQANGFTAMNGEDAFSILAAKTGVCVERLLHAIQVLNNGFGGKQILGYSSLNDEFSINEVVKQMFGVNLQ
# Protocol: Compounds were assayed using standard methods to assess compound activity and IC50. As an exemplary for assessment of the SARS-COV2 Mpro, the C-His6-tagged Mpro (NC_045512) was cloned, expressed in E. coli and purified. The assay buffer contained 20 mM of Tris-HCl (pH 7.3), 100 mM of NaCl, 1 mM of EDTA, 5 mM of TCEP and 0.1% BSA. The final concentrations of the Mpro protein and substrate were 25 nM and 25 μM, respectively, in the Mpro enzymatic assay. The Km of the Mpro substrate for the protease was 13.5 μM.
# The compounds were added to an assay plate. […] For no inhibition control (ZPE, zero percent effect), no compound was added.
# IC50 values of compounds were calculated with the GraphPad Prism software using the nonlinear regression model of log(inhibitor) vs. response—Variable slope (four parameters). The inhibition activity was calculated using the formula below, IC50 values is calculated using the Inhibition % data.
# Inhibition %=[(Sample-Average ZPE)/(Average HPE-Average ZPE)]*100%^#
# [4] = read-out: OC43 IC50 (uM) MEDIAN, median
# [5] = Betacoronavirus 1, OC43, read-out: OC43 IC50 (uM) MEDIAN, median
SMILES,"IC50 [1, 4] [µM]",IC50 [2] [µM],EC50 ([3]; 229E Mpro EC50) [µM],EC50 ([3]; read-out: 229E Mpro EC50) [µM],"IC50 [1, 5] [µM]"
"CC(C)(C)c1ccc(N(C(=O)[C@H]2C[C@@H](Oc3ccccc3)CN2C#N)C(C(=O)NC2CCCCC2)c2cccnc2)cc1 (single isomer, unassigned) [307 Isomer 2]",2 to 10,> 30,2 to 10,,
"CC(C)(C)c1ccc(N(C(=O)[C@H]2CCCN2C#N)C(C(=O)NCCN2CCOCC2)c2cccnc2)cc1 (single isomer, unassigned) [391 Isomer 1]",< 2,< 2,< 2,,
"CC(C)(C)c1ccc(N(C(=O)[C@H]2CCCN2C#N)C(C(=O)NCCN2CCOCC2)c2cccnc2)cc1 (single isomer, unassigned) [391 Isomer 2]",10 to 30,10 to 30,2 to 10,,
"CC(C)(C)c1ccc(N(C(=O)[C@H]2CCCN2C#N)C(C(=O)NC2CCCCC2)c2cncc(F)c2)cc1 (single isomer, unassigned) [475 Isomer 1]",2 to 10,< 2,< 2,,
"CC(C)(C)c1ccc(N(C(=O)[C@H]2CCCN2C#N)C(C(=O)NC2CCCCC2)c2cncc(F)c2)cc1 (single isomer, unassigned) [475 Isomer 2]",10 to 30,10 to 30,2 to 10,,
"CC(C)(C)c1ccc(N(C(=O)[C@H]2C[C@@H](O)CN2C#N)C(C(=O)NC2CCCC2)c2cccnc2)cc1 (single isomer, unassigned) [595 Isomer 2]",< 2,< 2,,< 2,
"CC(C)(C)c1ccc(N(C(=O)[C@H]2C[C@@H](O)CN2C#N)C(C(=O)NCc2cccnc2)c2cccnc2)cc1 (single isomer, unassigned) [643 Isomer 1]",,< 2,< 2,,< 2
"CC(C)(C)c1ccc(N(C(=O)[C@H]2C[C@@H](O)CN2C#N)C(C(=O)NCc2cccnc2)c2cccnc2)cc1 (single isomer, unassigned) [643 Isomer 2]",2 to 10,2 to 10,,< 2,
"COCCCNC(=O)C(c1cccnc1)N(C(=O)[C@H]1C[C@@H](O)CN1C#N)c1ccc(C(C)(C)C)cc1 (single isomer, unassigned) [647 Isomer 1]",,< 2,< 2,,< 2
"CC(C)(C)c1ccc(N(C(=O)[C@H]2CCCN2C#N)C(C(=O)NC2CCCCC2)c2cccnc2)cc1 (single isomer, unassigned) [Compound 130a]",,< 2,< 2,,
"CC(C)(C)c1ccc(N(C(=O)[C@H]2CCCN2C#N)C(C(=O)NC2CCCCC2)c2cccnc2)cc1 (single isomer, unassigned) [Compound 130b]",,> 30,2 to 10,,
"CC(C)(C)OC(=O)N1CCC[C@@H]1C(=O)N(c1ccc(C(C)(C)C)cc1)C(C(=O)NC1CCCCC1)c1cccnc1 (single isomer, unassigned) [Compound 131a]",,> 30,> 30,,
"CC(C)(C)c1ccc(N(C(=O)[C@@H]2CCCN2)C(C(=O)NC2CCCCC2)c2cccnc2)cc1 (single isomer, unassigned) [Compound 131c]",,> 30,> 30,,
"N#CN1C[C@H]2C[C@H]2[C@@H]1C(=O)N(c1ccc(S(F)(F)(F)(F)F)cc1)C(C(=O)NC1CCC(F)(F)CC1)c1cncc(F)c1 (single isomer, unassigned) [Compound 1095b Isomer 2]",< 2,< 2,,,
CC(C)(C)c1ccc(N(C(=O)c2cnc[nH]2)C(C(=O)NC2CCCCC2)c2cccnc2Br)cc1 (stereo not shown) [Compound 100a],,> 30,,,
CC(C)(C)c1ccc(N(C(=O)c2cnc[nH]2)C(C(=O)NC2CCCCC2)c2ccc(C(F)(F)F)nc2Cl)cc1 (stereo not shown) [Compound 102a],,> 30,,,
"CC(C)(C)c1ccc(N(C(=O)c2cnc[nH]2)C(C(=O)NC2CCCCC2)c2cncnc2)cc1 (stereo not shown) [Compound 104, N-(4-tert-butylphenyl)-N-[2-(cyclohexylamino)-2-oxo-1-pyrimidin-5-yl-ethyl]-1H-imidazole-5-carboxamide]",,2 to 10,,,
CC(C)(C)c1ccc(N(C(=O)c2cnc[nH]2)C(C(=O)NC2CCCCC2)c2ncc(Cl)nc2C#N)cc1 (stereo not shown) [Compound 110],,> 30,> 30,,

SMILES,"IC50 [1, 4] [µM]",IC50 [2] [µM],EC50 ([3]; 229E Mpro EC50) [µM],EC50 ([3]; read-out: 229E Mpro EC50) [µM],"IC50 [1, 5] [µM]"
"CC(C)(C)c1ccc(N(C(=O)c2nsnc2C#N)C(C(=O)NC2CCCCC2)c2cccnc2)cc1 (stereo not shown) [Compound 122, N-(4-tert-butylphenyl)-4-cyano-N-[2-(cyclohexylamino)-2-oxo-1-(3-pyridyl)ethyl]-1,2,5-thiadiazole-3-carboxamide]",,,,> 30,
CC(C)(C)c1ccc(N(C(=O)c2nsnc2C(N)=O)C(C(=O)NC2CCCCC2)c2cccnc2)cc1 (stereo not shown) [Compound 123a],,> 30,> 30,,
CC(C)(C)c1ccc(N(C(=O)c2nccnc2C(N)=O)C(C(=O)NC2CCCCC2)c2cccnc2)cc1 (stereo not shown) [Compound 124a],,> 30,> 30,,
CC(C)(C)OC(=O)N1CC(C(=O)N(c2ccc(C(C)(C)C)cc2)C(C(=O)NC2CCCCC2)c2cccnc2)C1 (stereo not shown) [Compound 126],,> 30,> 30,,
CC(C)(C)c1ccc(N(C(=O)C2CNC2)C(C(=O)NC2CCCCC2)c2cccnc2)cc1 (stereo not shown) [Compound 127],,> 30,> 30,,
CC(C)(C)OC(=O)N1CC(C)(C(=O)N(c2ccc(C(C)(C)C)cc2)C(C(=O)NC2CCCCC2)c2cccnc2)C1 (stereo not shown) [Compound 129],,> 30,> 30,,
CC1(C(=O)N(c2ccc(C(C)(C)C)cc2)C(C(=O)NC2CCCCC2)c2cccnc2)CNC1 (stereo not shown) [Compound 129a],,> 30,> 30,,
CC(C)(C)c1ccc(N(C(=O)[C@@H]2CCCN2C#N)C(C(=O)NC2CCCCC2)c2cccnc2)cc1 (stereo partly shown) [Compound 130c],,> 30,> 30,,
CC(C)(C)OC(=O)N1CCC[C@@H]1C(=O)N(c1ccc(C(C)(C)C)cc1)C(C(=O)NC1CCCCC1)c1cccnc1 (stereo partly shown) [Compound 131b],,> 30,,> 30,
CC(C)(C)c1ccc(N(C(=O)[C@@H]2CCCN2)C(C(=O)NC2CCCCC2)c2cccnc2)cc1 (stereo partly shown) [Compound 131d],,> 30,,> 30,
CC(C)(C)c1ccc(N(C(=O)[C@H]2N(C#N)CC2(C)C)C(C(=O)NC2CCCCC2)c2cccnc2)cc1 (stereo partly shown) [Compound 136a],,> 30,> 30,,
CC(C)(C)c1ccc(N(C(=O)[C@H]2NCC2(C)C)[C@H](C(=O)NC2CCCCC2)c2cccnc2)cc1 [Compound 136b],,> 30,> 30,,
CC(C)(C)c1ccc(N(C(=O)[C@H]2NCC2(C)C)[C@@H](C(=O)NC2CCCCC2)c2cccnc2)cc1 [Compound 136c],,> 30,> 30,,
NC(=O)c1nc(C2CC2)ccc1N(C(=O)c1cnc[nH]1)[C@@H](C(=O)NC1CCCCC1)c1cccnc1 [Compound 832],,,,2 to 10,
NC(=O)c1nc(C2CC2)ccc1N(C(=O)c1cnc[nH]1)[C@H](C(=O)NC1CCCCC1)c1cccnc1 [Compound 833],,2 to 10,2 to 10,,
CC(C)(C)c1ccc(N(C(=O)[C@@H]2CCN2)[C@H](C(=O)NC2CCCCC2)c2cccnc2)cc1 [Compound 846],,,,< 2,
"CC(C)(C)c1ccc(N(C(=O)c2scnc2C#N)C(C(=O)NC2CCCCC2)c2cccnc2)cc1 (stereo not shown) [Compound 899, N-(4-tert-butylphenyl)-4-cyano-N-[2-(cyclohexylamino)-2-oxo-1-(3-pyridyl)ethyl]thiazole-5-carboxamide]",,> 30,,,
CC(C)(C)c1ccc(N(C(=O)c2scnc2Cl)C(C(=O)NC2CCCCC2)c2cccnc2)cc1 (stereo not shown) [Compound 899a],,> 30,,,
